Data as given in US20230338534A1, “METHOD” (AUTOLUS LIMITED, priority 2020, published 2023).

System: RQR8+ cells expressing TRBC2 CAR alone
Experiment: Tacrolimus effect on proliferation of CAR-T cells in 4 day co-culture
Type: cell-based
Conditions: 20 ng/ml; 4 days co-culture with TRBC2+ targets
Experimental: In a similar study, cells transduced to express either TRBC2 CAR alone or TRBC2 CAR in combination with a calcineurin mutant (CnB30) were co-cultured for 4 days with TRBC2+ positive targets in the presence or absence of 20 ng/ml of Tacrolimus. […] This was true for cells expressing TRBC2 CAR alone or co-expressing TRBC2 CAR in combination with the calcineurin mutant.

## C=CC[C@@H]1/C=C(\C)C[C@H](C)C[C@H](OC)[C@H]2O[C@@](O)(C(=O)C(=O)N3CCCC[C@H]3C(=O)O[C@H](/C(C)=C/[C@@H]3CC[C@@H](O)[C@H](OC)C3)[C@H](C)[C@@H](O)CC1=O)[C@H](C)C[C@@H]2OC [Tacrolimus, tacrolimus]
  effect on proliferation of cells expressing TRBC2 CAR alone: inhibits proliferation
